Results taken from paper PMC10977697 (PLOS ONE, 2024).
Where no end group is shown, it is not given here.

What follows are sequences tested on CD16A (assay: Spot phage ELISA, CD16A). Conditions: spot phage ELISA signal-to-noise on CD16A.
Format: binding, human

| Sequence | S/N |
| --- | --- |
| GCADTPWKGKCKQDSDCLAGCVCGPNGFCG (disulfide (positions not given here)) [CD16A EETI-II 20] | 15.6 |
| GCADTPWQGRCKQDSDCLAGCVCGPNGFCG (disulfide (positions not given here)) [CD16A EETI-II 21] | 25.5 |
| GCAKDPWGQPMSCKQDSDCLAGCVCGPNGFC (disulfide (positions not given here)) [CD16A EETI-II 27] | 20.7 |
| GCAVDPWGKQMTCKQDSDCLAGCVCGPNGFC (disulfide (positions not given here)) [CD16A EETI-II 33] | 19.5 |
| GCDAILWTCKQDSDCLAGCVCSEEDLCG (disulfide (positions not given here)) [CD16A EETI-II 7] | 18.7 |
| GCDAKLQQCKQDSDCLAGCVCEEAVICG (disulfide (positions not given here)) [CD16A EETI-II 2] | 22.9 |
| GCDDILRACKQDSDCLAGCVCEEETLCG (disulfide (positions not given here)) [CD16A EETI-II 6] | 19.9 |
| GCDDILRACKQDSDCLAGCVCEEETLCG (disulfide (positions not given here)) [CD16A EETI-II 9] | 17.8 |
| GCDDPWGGEMCKQDSDCLAGCVCGPNGFCG (disulfide (positions not given here)) [CD16A EETI-II 16] | 23.6 |
| GCDDPWGMAMPCKQDSDCLAGCVCGPNGFCG (disulfide (positions not given here)) [CD16A EETI-II 17] | 23.4 |
| GCDEILHKCKQDSDCLAGCVCDEQQLCG (disulfide (positions not given here)) [CD16A EETI-II 10] | 17.2 |
| GCDEMLYRCKQDSDCLAGCVCQEQDVCG (disulfide (positions not given here)) [CD16A EETI-II 5] | 20.0 |
| GCDMPSWDNVWPCKQDSDCLAGCVCGPNGFC (disulfide (positions not given here)) [CD16A EETI-II 28] | 19.8 |
| GCDSLLQRCKQDSDCLAGCVCTEEHLCG (disulfide (positions not given here)) [CD16A EETI-II 11] | 16.8 |
| GCDWLEVECKQDSDCLAGCVCLISPYCG (disulfide (positions not given here)) [CD16A EETI-II 39] | 16.3 |
| GCDYKLWRCKQDSDCLAGCVCEESQVCG (disulfide (positions not given here)) [CD16A EETI-II 3] | 21.6 |
| GCDYKLWRCKQDSDCLAGCVCEESQVCG (disulfide (positions not given here)) [CD16A EETI-II 8] | 18.2 |
| GCEWMAIPCKQDSDCLAGCVCWESPYCG (disulfide (positions not given here)) [CD16A EETI-II 40] | 20.1 |
| GCGQAAVPCKQDSDCLAGCVCDPWGWCD (disulfide (positions not given here)) [CD16A EETI-II 29] | 23.7 |
| GCGSKNGMNMCKQDSDCLAGCVCDPWGQCD (disulfide (positions not given here)) [CD16A EETI-II 31] | 15.5 |
| GCIATVDHCKQDSDCLAGCVCEPFHVCG (disulfide (positions not given here)) [CD16A EETI-II 4] | 20.2 |
| GCIETIDHCKQDSDCLAGCVCQPMRRCG (disulfide (positions not given here)) [CD16A EETI-II 13] | 20.1 |
| GCMDTPWKGACKQDSDCLAGCVCGPNGFCG (disulfide (positions not given here)) [CD16A EETI-II 19] | 18.2 |
| GCPRILMRCKQDPDCLAGCVCDEEQLCG (disulfide (positions not given here)) [CD16A EETI-II 1] | 25.4 |
| GCPRILMRCKQDSDCLAGYVCDPWGVCD (disulfide (positions not given here)) [CD16A EETI-II 30] | 23.2 |
| GCPWWWVVSCKQDSDCLAGCVCYLQENCG (disulfide (positions not given here)) [CD16A EETI-II 14] | 17.8 |
| GCPWWWVVSCKQDSDCLAGCVCYLQENCG (disulfide (positions not given here)) [CD16A EETI-II 43] | 16.5 |
| GCQDPWGEAMQCKQDSDCLAGCVCGPNGFCG (disulfide (positions not given here)) [CD16A EETI-II 15] | 25.7 |

| Sequence | S/N |
| --- | --- |
| GCQFMKTECKQDSDCLAGCVCYESPWCG (disulfide (positions not given here)) [CD16A EETI-II 22] | 19.0 |
| GCQVDPWGHQMDCKQDSDCLAGCVCGPNGFC (disulfide (positions not given here)) [CD16A EETI-II 32] | 22.9 |
| GCQWAQLSWDHCKQDSDCLAGCVCWQSPYCG (disulfide (positions not given here)) [CD16A EETI-II 35] | 16.7 |
| GCQWDPWGVQMNCKQDSDCLAGCVCGPNGFC (disulfide (positions not given here)) [CD16A EETI-II 34] | 19.6 |
| GCQWHEMTCKQDSDCLAGCVCWESPWCG (disulfide (positions not given here)) [CD16A EETI-II 36] | 15.9 |
| GCQWIQQPCKQDSDCLAGCVCHESPWCG (disulfide (positions not given here)) [CD16A EETI-II 38] | 17.4 |
| GCQWIQVNCKQDSDCLAGCVCWVSPYCG (disulfide (positions not given here)) [CD16A EETI-II 37] | 5.8 |
| GCQWQVEECKQDSDCLAGCVCWHSPYCG (disulfide (positions not given here)) [CD16A EETI-II 41] | 18.8 |
| GCQWVQMTCKQDSDCLAGCVCWHSPWCG (disulfide (positions not given here)) [CD16A EETI-II 42] | 17.3 |
| GCQYIETECKQDSDCLAGCVCWVSPWCG (disulfide (positions not given here)) [CD16A EETI-II 44] | 20.5 |
| GCRGIDWWPCKQDSDCLTGCVCGPNGFCG (disulfide (positions not given here)) [CD16A EETI-II 24] | 11.1 |
| GCSGNAMNCKQDSDCLAGCVCDPWGKCD (disulfide (positions not given here)) [CD16A EETI-II 25] | 19.7 |
| GCVETYVDCKQDSDCLAGCVCEPVQYCG (disulfide (positions not given here)) [CD16A EETI-II 12] | 18.5 |
| GCWDPWGPMSCKQDSDCLAGCVCGPNGFCG (disulfide (positions not given here)) [CD16A EETI-II 18] | 12.9 |
| GCWGFPFPMDCKQDSDCLAGCVCFLWDKCG (disulfide (positions not given here)) [CD16A EETI-II 23] | 19.5 |
| GCWGPWGPEHCKQDSDCLAGCVCGPNGFCG (disulfide (positions not given here)) [CD16A EETI-II 26] | 18.3 |
| GPTQSEGGQCGGIGYSGPTVCASGTTCQVLGPMWSFCLPGAS (disulfide (positions not given here)) [CD16A CBD 10] | 5.9 |
| GPTQSEGGQCGGIGYSGPTVCASGTTCQVLGPSWSFCLPGAS (disulfide (positions not given here)) [CD16A CBD 11] | 4.9 |
| GPTQSEGGSCGGIGYSGPTVCASGTTCQVLGPYISLCLPGAS (disulfide (positions not given here)) [CD16A CBD 2] | 18.5 |
| GPTQSEGGSCGGIGYSGPTVCASGTTCQVLNPYMSACLPGAS (disulfide (positions not given here)) [CD16A CBD 7] | 14.8 |
| GPTQSHGGSCGGIGYSGPTVCASGTTCQVLNPYLSLCLPGAS (disulfide (positions not given here)) [CD16A CBD 3] | 17.5 |
| GPTQSHYGQCGGLGYFGQWFCSGTTCQMMSPYGSQCLPGAST (disulfide (positions not given here)) [CD16A CBD 9] | 8.3 |
| GPTQSMGGSCGGIGYSGPTVCASGTTCQVLDPYISMCLPGAS (disulfide (positions not given here)) [CD16A CBD 5] | 16.5 |
| GPTQSPEGSCGGIGYSGPTVCASGTTCQVLNPYLSLCLPGAS (disulfide (positions not given here)) [CD16A CBD 8] | 14.2 |
| GPTQSPXGSCGGIGYSGPTVCASGTTCQVLNPYLSQCLPGAS (disulfide) [CD16A CBD 4] | 16.8 |
| GPTQSVWGSCGGIGYSGPTVCASGTTCQVLNPYMSACLPGAS (disulfide (positions not given here)) [CD16A CBD 1] | 21.0 |
| GPTQSWDGQCGGIGYSGPTVCASGTTCQVLSPYLSYCLPGAS (disulfide (positions not given here)) [CD16A CBD 6] | 15.7 |

Each sequence was assayed on EpCAM (assay: Spot phage ELISA, EpCAM). Conditions: spot phage ELISA signal-to-noise on EpCAM.
Format: binding, human

| Sequence | S/N |
| --- | --- |
| GPTQSIYGVCGGIGYVGGRYCSGTTCQIPEKYKSQCLPGAS (disulfide (positions not given here)) [EpCAM CBD 45] | 11.1 |
| GPTQSLPGFCGGIGYVGGRYCSGTTCQLPEKLKSQCLPGAS (disulfide (positions not given here)) [EpCAM CBD 1] | 26.7 |
| GPTQSVIGPCGGIGYVGGRYCSGTTCQMPTSYRSQCLPGAS (disulfide (positions not given here)) [EpCAM CBD 35] | 14.4 |

The sequences below were run on PCSK9 (assay: not given). Conditions: spot phage ELISA signal-to-noise on PCSK9.
Format: binding, human

| Sequence | S/N |
| --- | --- |
| GCGSHFAPWFGCKQDSDCLSWLCLYAADGLW (disulfide (positions not given here)) [PCSK9 EET I-II 5] | 18.1 |
| GCGWWYRQWFCKQDSDCLAGCVCLETPECG (disulfide (positions not given here)) [PCSK9 EET I-II 16] | 15.7 |
| GCGYWFIQWFCKQDSDCLAGCVCGPNGFCG (disulfide (positions not given here)) [PCSK9 EET I-II 1] | 21.8 |
| GCGYWFKMWFCKQDSDCLAGCVCYPGASCG (disulfide (positions not given here)) [PCSK9 EET I-II 8] | 9.7 |
| GCGYWFKMWFCKQDSDCLAGCVCYPGASCG (disulfide (positions not given here)) [PCSK9 EET I-II 12] | 15.5 |
